From patent publication US9828413B2, “Vancomycin derivative, and preparation method and application thereof” (ACESYS PHARMA INC., priority 2013, dated 2017)
Converted amounts (≈) assume the structure as drawn. Like-named read-outs stand apart in the source and are kept apart here.

How the values were obtained:
[1] = data from US2010/045201; cited from earlier work
[2] = system: Staphylococcus aureus Mu50; experiment: In vitro activity assay, minimum inhibitory concentration (MIC), cup-plate method; format: cell-based
Protocol: (§1) In vitro activity assay was performed according to Microbiological Identification of Antibiotics, Appendix XIA, Volume II, Chinese Pharmacopoeia 2010. Vancomycin-sensitive Staphylococcus aureus strains (Newman and Mu 50) were selected as the test strains, and trypticase soy broth was selected as the culture medium.

[3] = system: Staphylococcus aureus Newman; experiment: as above; format: cell-based; conditions: read-out: MIC values, Staphylococcus aureus Newman
Protocol: as §1

[4] = Solubility test of compounds in water; conditions: 25 °C, thermodynamic from solid
physchem = conditions: 25 °C, water, thermodynamic from solid
[5] = strain Mu50, trypticase soy broth, read-out: MIC values, Staphylococcus aureus Mu50
[6] = strain Newman, trypticase soy broth

Molecule | Solubility in water [1] [mg/mL] | MIC ([2]; MU50, read-out: MIC values, Staphylococcus aureus Mu50) [µg/mL] | MIC ([3]; NEWMAN) [µg/mL] | solubility at 30 min [4] [mg/mL] | solubility at 30 min (physchem) [mg/mL] | MIC [2, 5] [µg/mL] | MIC [3, 6] [µg/mL]
Oritavancin | <0.1 |  |  |  |  |  | 
CN[C@H](CC(C)C)C(=O)N[C@H]1C(=O)N[C@@H](CC(N)=O)C(=O)N[C@H]2C(=O)N[C@H]3C(=O)N[C@H](C(=O)N[C@H](C(=O)O)c4cc(O)cc(O)c4-c4cc3ccc4O)[C@H](O)c3ccc(c(Cl)c3)Oc3cc2cc(c3O[C@@H]2O[C@H](CO)[C@@H](O)[C@H](O)[C@H]2O[C@H]2C[C@](C)(N)[C@H](O)[C@H](C)O2)Oc2ccc(cc2Cl)[C@H]1O [Vancomycin] |  | 8 (≈ 5.52 µM) | 2 (≈ 1.38 µM) | ≥ 100 |  |  | 
CN[C@H](CC(C)C)C(=O)N[C@@H]1C(=O)NC(CC(N)=O)C(=O)NC2C(=O)NC3C(=O)N[C@H](C(=O)NC(C(=O)O)c4cc(O)cc(O)c4-c4cc3ccc4O)[C@H](O)c3ccc(c(Cl)c3)Oc3cc2cc(c3OC2OC(CO)C(O)C(O)C2OC2CC(C)(NCC(OCc3ccc(-c4ccccc4)cc3)C(=O)OC)C(O)C(C)O2)Oc2ccc(cc2Cl)C1O (stereo partly shown) [Compound V25] |  |  |  |  | < 5 | 8 (≈ 4.66 µM) | 4 (≈ 2.33 µM)
CCCOC(CNC1(C)CC(OC2C(Oc3c4cc5cc3Oc3ccc(cc3Cl)[C@@H](O)[C@@H]3NC(=O)C(NC(=O)C5NC(=O)C(CC(N)=O)NC(=O)[C@@H](NC(=O)[C@H](N)CC(C)C)C(O)c5ccc(c(Cl)c5)O4)c4ccc(O)c(c4)-c4c(O)cc(O)cc4C(C(=O)O)NC3=O)OC(CO)C(O)C2O)OC(C)C1O)C(=O)O (stereo partly shown) [Compound V57] |  |  |  |  | > 60 | 16 (≈ 10.2 µM) | 4 (≈ 2.56 µM)
CCCCCCCCCCOC(CNC1(C)CC(OC2C(Oc3c4cc5cc3Oc3ccc(cc3Cl)[C@@H](O)[C@@H]3NC(=O)C(NC(=O)C5NC(=O)C(CC(N)=O)NC(=O)[C@@H](NC(=O)[C@@H](CC(C)C)NC)C(O)c5ccc(c(Cl)c5)O4)c4ccc(O)c(c4)-c4c(O)cc(O)cc4C(C(=O)O)NC3=O)OC(CO)C(O)C2O)OC(C)C1O)C(=O)O (stereo partly shown) [Compound V67] |  |  |  |  | 5 to 10 (≈ 2980 to 5960 µM) | 4 (≈ 2.38 µM) | 2 (≈ 1.19 µM)
CN[C@H](CC(C)C)C(=O)N[C@@H]1C(=O)NC(CC(N)=O)C(=O)NC2C(=O)NC3C(=O)N[C@H](C(=O)NC(C(=O)O)c4cc(O)cc(O)c4-c4cc3ccc4O)[C@H](O)c3ccc(c(Cl)c3)Oc3cc2cc(c3OC2OC(CO)C(O)C(O)C2OC2CC(C)(NCC(OCc3ccc(Cl)cc3)C(=O)O)C(O)C(C)O2)Oc2ccc(cc2Cl)C1O (stereo partly shown) [Compound V21] |  |  |  |  | > 8 | 2 (≈ 1.2 µM) | < 0.125
CC(C)C[C@@H](N)C(=O)NC1C(=O)N[C@@H](CC(N)=O)C(=O)N[C@H]2C(=O)NC3C(=O)N[C@H](C(=O)N[C@@H](C(=O)O)c4cc(O)cc(O)c4-c4cc3ccc4O)[C@H](O)c3ccc(c(Cl)c3)Oc3cc2cc(c3OC2OC(CO)C(O)C(O)C2OC2CC(C)(NCC(OCc3ccc(-c4ccc(Cl)cc4)cc3)C(=O)O)C(O)C(C)O2)Oc2ccc(cc2Cl)[C@H]1O (stereo partly shown) [Compound V54] |  |  |  |  | 15 to 20 (≈ 8700 to 11600 µM) | 2 (≈ 1.16 µM) | < 0.125
CCCCCCOC(CNC1(C)CC(OC2C(Oc3c4cc5cc3Oc3ccc(cc3Cl)[C@@H](O)[C@@H]3NC(=O)C(NC(=O)C5NC(=O)C(CC(N)=O)NC(=O)[C@@H](NC(=O)[C@H](N)CC(C)C)C(O)c5ccc(c(Cl)c5)O4)c4ccc(O)c(c4)-c4c(O)cc(O)cc4C(C(=O)O)NC3=O)OC(CO)C(O)C2O)OC(C)C1O)C(=O)OC (stereo partly shown) [Compound V59] |  |  |  |  | < 10 | 8 (≈ 4.93 µM) | 2 (≈ 1.23 µM)
CN[C@H](CC(C)C)C(=O)N[C@@H]1C(=O)NC(CC(N)=O)C(=O)NC2C(=O)NC3C(=O)N[C@H](C(=O)NC(C(=O)O)c4cc(O)cc(O)c4-c4cc3ccc4O)[C@H](O)c3ccc(c(Cl)c3)Oc3cc2cc(c3OC2OC(CO)C(O)C(O)C2OC2CC(C)(NCC(OC)C(=O)OC)C(O)C(C)O2)Oc2ccc(cc2Cl)C1O (stereo partly shown) [Compound V26] |  |  |  |  | 4.5 (≈ 2870 µM) | 64 (≈ 40.9 µM) | 16 (≈ 10.2 µM)
CN[C@H](CC(C)C)C(=O)N[C@@H]1C(=O)NC(CC(N)=O)C(=O)NC2C(=O)NC3C(=O)N[C@H](C(=O)NC(C(=O)O)c4cc(O)cc(O)c4-c4cc3ccc4O)[C@H](OC3CC(C)(N)C(O)C(C)O3)c3ccc(c(Cl)c3)Oc3cc2cc(c3OC2OC(CO)C(O)C(O)C2OC2CC(C)(NCC(OCc3ccc(-c4ccc(Cl)cc4)cc3)C(=O)O)C(O)C(C)O2)Oc2ccc(cc2Cl)C1O (stereo partly shown) [Compound V63] |  |  |  |  | 5 to 20 (≈ 2660 to 10600 µM) | 2 (≈ 1.06 µM) | < 0.125
CCCCCCOC(CNC1(C)CC(OC2C(Oc3c4cc5cc3Oc3ccc(cc3Cl)[C@@H](O)[C@@H]3NC(=O)C(NC(=O)[C@@H]5NC(=O)[C@H](CC(N)=O)NC(=O)C(NC(=O)[C@H](N)CC(C)C)[C@H](O)c5ccc(c(Cl)c5)O4)c4ccc(O)c(c4)-c4c(O)cc(O)cc4[C@H](C(=O)O)NC3=O)OC(CO)C(O)C2O)OC(C)C1O)C(=O)O (stereo partly shown) [Compound V60] |  |  |  |  | > 20 | 8 (≈ 4.98 µM) | 2 (≈ 1.24 µM)
CN[C@H](CC(C)C)C(=O)N[C@@H]1C(=O)NC(CC(N)=O)C(=O)NC2C(=O)NC3C(=O)N[C@H](C(=O)NC(C(=O)O)c4cc(O)cc(O)c4-c4cc3ccc4O)[C@H](O)c3ccc(c(Cl)c3)Oc3cc2cc(c3OC2OC(CO)C(O)C(O)C2OC2CC(C)(NCC(OCc3ccc(Cl)cc3)C(=O)OC)C(O)C(C)O2)Oc2ccc(cc2Cl)C1O (stereo partly shown) [Compound V20] |  |  |  |  | < 5 | 2 (≈ 1.19 µM) | < 0.125
CN[C@H](CC(C)C)C(=O)NC1C(=O)N[C@@H](CC(N)=O)C(=O)N[C@H]2C(=O)NC3C(=O)N[C@H](C(=O)N[C@@H](C(=O)O)c4cc(O)cc(O)c4-c4cc3ccc4O)[C@H](O)c3ccc(c(Cl)c3)Oc3cc2cc(c3OC2OC(CO)C(O)C(O)C2OC2CC(C)(NCC(OCc3ccc(-c4ccccc4)cc3)C(=O)O)C(O)C(C)O2)Oc2ccc(cc2Cl)[C@H]1O (stereo partly shown) [Compound V24] |  |  |  |  | > 10 | 8 (≈ 4.7 µM) | 4 (≈ 2.35 µM)
CN[C@H](CC(C)C)C(=O)N[C@@H]1C(=O)NC(CC(N)=O)C(=O)NC2C(=O)NC3C(=O)N[C@H](C(=O)NC(C(=O)O)c4cc(O)cc(O)c4-c4cc3ccc4O)[C@H](O)c3ccc(c(Cl)c3)Oc3cc2cc(c3OC2OC(CO)C(O)C(O)C2OC2CC(C)(NCC(OCc3ccc(-c4ccc(Cl)cc4)cc3)C(=O)OC)C(O)C(C)O2)Oc2ccc(cc2Cl)C1O (stereo partly shown) [Compound V13] |  |  |  |  | 50 to 60 (≈ 28500 to 34200 µM) | 2 (≈ 1.14 µM) | < 0.125
CCCCCCOC(CNC1(C)CC(OC2C(Oc3c4cc5cc3Oc3ccc(cc3Cl)[C@@H](O)[C@@H]3NC(=O)C(NC(=O)[C@@H]5NC(=O)[C@H](CC(N)=O)NC(=O)C(NC(=O)[C@@H](CC(C)C)NC)[C@H](O)c5ccc(c(Cl)c5)O4)c4ccc(O)c(c4)-c4c(O)cc(O)cc4[C@H](C(=O)O)NC3=O)OC(CO)C(O)C2O)OC(C)C1O)C(=O)O (stereo partly shown) [Compound V32] |  |  |  |  | 50 to 60 (≈ 30800 to 37000 µM) | 8 (≈ 4.93 µM) | 2 (≈ 1.23 µM)
CCCOC(CNC1(C)CC(OC2C(Oc3c4cc5cc3Oc3ccc(cc3Cl)[C@@H](O)[C@@H]3NC(=O)C(NC(=O)[C@@H]5NC(=O)[C@H](CC(N)=O)NC(=O)C(NC(=O)[C@@H](CC(C)C)NC)[C@H](O)c5ccc(c(Cl)c5)O4)c4ccc(O)c(c4)-c4c(O)cc(O)cc4[C@H](C(=O)O)NC3=O)OC(CO)C(O)C2O)OC(C)C1O)C(=O)O (stereo partly shown) [Compound V30] |  |  |  |  | 4 (≈ 2530 µM) | 16 (≈ 10.1 µM) | 4 (≈ 2.53 µM)
CN[C@H](CC(C)C)C(=O)NC1C(=O)N[C@@H](CC(N)=O)C(=O)N[C@H]2C(=O)NC3C(=O)N[C@H](C(=O)N[C@@H](C(=O)O)c4cc(O)cc(O)c4-c4cc3ccc4O)[C@H](OC3CC(C)(N)C(O)C(C)O3)c3ccc(c(Cl)c3)Oc3cc2cc(c3OC2OC(CO)C(O)C(O)C2OC2CC(C)(NCC(OCc3ccccc3)C(=O)O)C(O)C(C)O2)Oc2ccc(cc2Cl)[C@H]1O (stereo partly shown) [Compound V61] |  |  |  |  | 20 (≈ 11300 µM) | 8 (≈ 4.52 µM) | 4 (≈ 2.26 µM)
CN[C@H](CC(C)C)C(=O)NC1C(=O)N[C@@H](CC(N)=O)C(=O)N[C@H]2C(=O)NC3C(=O)N[C@H](C(=O)N[C@@H](C(=O)O)c4cc(O)cc(O)c4-c4cc3ccc4O)[C@H](O)c3ccc(c(Cl)c3)Oc3cc2cc(c3OC2OC(CO)C(O)C(O)C2OC2CC(C)(NCC(OCc3ccc(-c4ccc(Cl)cc4)cc3)C(=O)O)C(O)C(C)O2)Oc2ccc(cc2Cl)[C@H]1O (stereo partly shown) [Compound V15] |  |  |  |  | ≥ 60 | 2 (≈ 1.15 µM) | < 0.125
CN[C@H](CC(C)C)C(=O)N[C@@H]1C(=O)NC(CC(N)=O)C(=O)NC2C(=O)NC3C(=O)N[C@H](C(=O)NC(C(=O)O)c4cc(O)cc(O)c4-c4cc3ccc4O)[C@H](OC3CC(C)(N)C(O)C(C)O3)c3ccc(c(Cl)c3)Oc3cc2cc(c3OC2OC(CO)C(O)C(O)C2OC2CC(C)(NCC(OCc3ccc(Cl)cc3)C(=O)O)C(O)C(C)O2)Oc2ccc(cc2Cl)C1O (stereo partly shown) [Compound V62] |  |  |  |  | 5 to 20 (≈ 2770 to 11100 µM) | 8 (≈ 4.43 µM) | 4 (≈ 2.22 µM)
